# Reference: patent US20220411372A1, “SMALL-MOLECULE INHIBITORS FOR THE B-CATENIN/B-CELL LYMPHOMA 9 PROTEIN-PROTEIN INTERACTION” (H. Lee Moffitt Cancer Center and Research Institute, Inc., priority 2019, published 2022)
# Molecular target: T1, β-catenin/BCL9 PPI (Homo sapiens, UniProt P35222)
# T1 construct: Full-length β-catenin (residues 1-781) were cloned into a pET-28b vector; made in house; host or cells: E. coli BL21 DE3 (β-catenin); BCL9 peptide synthesized by InnoPep Inc
# T1 sequence (P35222 1-781): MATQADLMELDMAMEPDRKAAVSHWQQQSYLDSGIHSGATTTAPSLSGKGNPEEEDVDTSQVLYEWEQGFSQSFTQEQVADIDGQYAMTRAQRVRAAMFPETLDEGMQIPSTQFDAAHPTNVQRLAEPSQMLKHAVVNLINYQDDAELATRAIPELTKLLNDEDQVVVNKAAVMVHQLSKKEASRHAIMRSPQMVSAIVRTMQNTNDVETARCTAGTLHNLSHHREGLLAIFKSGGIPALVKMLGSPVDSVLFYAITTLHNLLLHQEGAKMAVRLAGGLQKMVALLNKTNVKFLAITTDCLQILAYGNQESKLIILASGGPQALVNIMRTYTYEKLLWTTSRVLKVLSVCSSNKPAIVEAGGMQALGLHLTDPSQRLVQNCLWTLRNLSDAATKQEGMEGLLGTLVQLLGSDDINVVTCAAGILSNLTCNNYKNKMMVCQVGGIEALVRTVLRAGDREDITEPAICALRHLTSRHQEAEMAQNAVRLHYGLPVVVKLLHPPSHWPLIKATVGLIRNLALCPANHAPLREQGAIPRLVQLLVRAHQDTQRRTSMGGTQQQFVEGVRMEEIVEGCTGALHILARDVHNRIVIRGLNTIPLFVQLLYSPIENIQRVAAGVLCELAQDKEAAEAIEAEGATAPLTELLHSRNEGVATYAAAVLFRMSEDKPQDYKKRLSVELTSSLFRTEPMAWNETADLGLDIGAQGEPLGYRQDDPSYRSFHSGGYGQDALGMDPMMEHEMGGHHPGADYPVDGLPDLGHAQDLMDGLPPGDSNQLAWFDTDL
# Test: AlphaScreen competitive inhibition assay of the β-catenin/BCL9 PPI
# Assay type: binding
# Details: Table 8, inhibitors 82-92; read-out: Ki
# Summary of the method: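 5 nM biotinylated BCL9 and 40 nM His6-β-catenin preincubated 30 min at 4° C in pH 7.4 Hepes buffer with 0.01% Triton X-100, 0.1% BSA, 1% DMSO; inhibitor added 1 h at 4° C, then 10 μg/mL donor/acceptor beads 1 h.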
row,Ki [µM],Molecule
1,< 90,"O=C(c1cccc(N2CCC[C@@H](C(=O)N(Cc3ccc(-c4cn[nH]c4)cc3)C3CC3)C2)c1)N1CCNCC1 [Compound 85, (R)-4-(3-(3-((4-(1H-pyrazol-4-yl)benzyl)(cyclopropyl)carbamoyl)piperidin-1-yl)benzoyl)piperazin-1-ium chloride]"
2,< 30,"O=C(C(Oc1cccc(N2CCC[C@@H](C(=O)N(Cc3ccc(-c4cn[nH]c4)cc3)C3CC3)C2)c1)c1ccccc1)N1CCNCC1 (stereo partly drawn) [Compound 86, 4-(2-(3-((R)-3-((4-(1H-pyrazol-4-yl)benzyl)(cyclopropyl)carbamoyl)piperidin-1-yl)phenoxy)-2-phenylacetyl)piperazin-1-ium chloride]"
3,< 90,"O=C(C(Cc1ccccc1)Oc1cccc(N2CCC[C@@H](C(=O)N(Cc3ccc(-c4cn[nH]c4)cc3)C3CC3)C2)c1)N1CCNCC1 (stereo partly drawn) [Compound 87, 4-(2-(3-((R)-3-((4-(1H-pyrazol-4-yl)benzyl)(cyclopropyl)carbamoyl)piperidin-1-yl)phenoxy)-3-phenylpropanoyl)piperazin-1-ium chloride]"
4,< 90,"CC(C)(Oc1cccc(N2CCC[C@@H](C(=O)N(Cc3ccc(-c4cn[nH]c4)cc3OCCN)C3CC3)C2)c1)C(=O)N1CCNCC1 [Compound 89, (R)-4-(2-(3-(3-((2-(2-ammonioethoxy)-4-(1H-pyrazol-4-yl)benzyl)(cyclopropyl)carbamoyl)piperidin-1-yl)phenoxy)-2-methylpropanoyl)piperazin-1-ium chlorine]"
5,< 30,"CC(C)c1ccc2c(c1)CCN(C(=O)[C@@H]1CCCN(c3cccc(OC(C)(C)C(=O)N4CCNCC4)c3)C1)C2 [Compound 90, (R)-4-(2-(3-(3-(6-isopropyl-1,2,3,4-tetrahydroisoquinoline-2-carbonyl)piperidin-1-yl)phenoxy)-2-methylpropanoyl)piperazin-1-ium chlorine]"
6,< 5,"CC(C)(Oc1cccc(N2CCC[C@@H](C(=O)N3CCc4cc(-c5ccccc5)ccc4C3)C2)c1)C(=O)N1CCNCC1 [Compound 91, (R)-4-(2-methyl-2-(3-(3-(6-phenyl-1,2,3,4-tetrahydroisoquinoline-2-carbonyl)piperidin-1-yl)phenoxy)propanoyl)piperazin-1-ium chlorine]"
7,< 90,"CC(C)(Oc1cccc(N2CCC[C@@H](C(=O)N3CCc4cc(-c5cn[nH]c5)ccc4C3)C2)c1)C(=O)N1CCNCC1 [Compound 92, (R)-4-(2-(3-(3-(6-(1H-pyrazol-4-yl)-1,2,3,4-tetrahydroisoquinoline-2-carbonyl)piperidin-1-yl)phenoxy)-2-methylpropanoyl)piperazin-1-ium chloride]"

# Same assay, conditions: Table 9, inhibitors 93-98, racemic; read-out: Ki
row,Ki [µM],Molecule
1,≤ 90,(R)-2-(3-(3-(cyclopropyl(4-isopropylbenzyl)carbamoyl)piperidin-1-yl)phenoxy)-2-methylpropanoic acid [Compound 98]

# Same assay, conditions: Table 12, inhibitors 109-112; read-out: Ki
row,Ki [µM],Molecule
1,≤ 30,"CCOc1cc(-c2cn[nH]c2)ccc1CN(C(=O)[C@@H]1CCCN(c2cccc(OC(C)(C)C(=O)N3CCNCC3)c2)C1)C1CC1 [Compound 109, (R)-4-(2-(3-(3-(Cyclopropyl(2-ethoxy-4-(1H-pyrazol-4-yl)benzyl)carbamoyl)piperidin-1-yl)phenoxy)-2-methylpropanoyl)piperazin-1-ium chloride]"
2,≤ 30,"CC(C)Oc1cc(-c2cn[nH]c2)ccc1CN(C(=O)[C@@H]1CCCN(c2cccc(OC(C)(C)C(=O)N3CCNCC3)c2)C1)C1CC1 [Compound 110, (R)-4-(2-(3-(3-(Cyclopropyl(2-isopropoxy-4-(1H-pyrazol-4-yl)benzyl)carbamoyl)piperidin-1-yl)phenoxy)-2-methylpropanoyl)piperazin-1-ium chloride]"
3,≤ 30,"CCCOc1cc(-c2cn[nH]c2)ccc1CN(C(=O)[C@@H]1CCCN(c2cccc(OC(C)(C)C(=O)N3CCNCC3)c2)C1)C1CC1 [Compound 111, (R)-4-(2-(3-(3-(Cyclopropyl(2-propoxy-4-(1H-pyrazol-4-yl)benzyl)carbamoyl)piperidin-1-yl)phenoxy)-2-methylpropanoyl)piperazin-1-ium chloride]"
4,≤ 30,"CC(C)(Oc1cncc(N2CCC[C@@H](C(=O)N(Cc3ccc(-c4cn[nH]c4)cc3)C3CC3)C2)c1)C(=O)N1CCNCC1 [Compound 112, (R)-4-(2-((5-(3-((4-(1H-pyrazol-4-yl)benzyl)(cyclopropyl)carbamoyl)piperidin-1-yl)pyridin-3-yl)oxy)-2-methylpropanoyl)piperazin-1-ium chloride]"
